From PubChem BioAssay (NCI)
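These data come from cells grown in 96-well plates and exposed to compound for 48 hours at five concentrations. GI50 is the concentration that inhibits growth by half. TGI: concentration producing complete growth inhibition.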

Assays:
Assay in all cases: inhibition of tumour cell growth, NCI panel, 48 h
DU-145 prostate = tested on: DU-145 prostate
MOLT-4 leukemia = tested on: MOLT-4 leukemia
OVCAR-4 ovarian = tested on: OVCAR-4 ovarian
SNB-19 CNS = tested on: SNB-19 CNS
BT-549 breast = tested on: BT-549 breast
UACC-257 melanoma = tested on: UACC-257 melanoma
SR leukemia = tested on: SR leukemia
MDA-MB-435 = tested on: MDA-MB-435

Row | Compound | GI50 (DU-145 prostate) [µM] | TGI (DU-145 prostate) [µM] | GI50 (MOLT-4 leukemia) [µM] | TGI (MOLT-4 leukemia) [µM] | GI50 (OVCAR-4 ovarian) [µM] | TGI (OVCAR-4 ovarian) [µM] | GI50 (SNB-19 CNS) [µM] | TGI (SNB-19 CNS) [µM] | GI50 (BT-549 breast) [µM] | TGI (BT-549 breast) [µM] | GI50 (UACC-257 melanoma) [µM] | TGI (UACC-257 melanoma) [µM] | GI50 (SR leukemia) [µM] | TGI (SR leukemia) [µM] | GI50 (MDA-MB-435) [µM] | TGI (MDA-MB-435) [µM]
1 | COc1ccc(/C(=N/O)c2cc(OC)c(OC)c(OC)c2)c(OC)c1N | 4.67 | > 100 | 6.94 | > 100 | 8.18 | > 100 | 5.32 | > 100 | 8.79 | > 100 | – | – | – | – | – | –
2 | CCCCN1CCN(c2ccc3nc(-c4ccc5nc(-c6ccc(OCC)c(OCC)c6)[nH]c5c4)[nH]c3c2)CC1 | 1 | 2.21 | 1.22 | 3.86 | 1.48 | 3.21 | 1.22 | 2.61 | – | – | 1.21 | 10.5 | 0.312 | 1.19 | 1.09 | 2.39
3 | CC12CCC(O)CC1=CCC1C2CCC2(C)C(c3cccnc3)=CCC12 (centres undefined) | > 100 | > 100 | > 100 | > 100 | > 100 | > 100 | > 100 | > 100 | > 100 | > 100 | – | – | 93.9 | > 100 | 83.7 | > 100
4 | COc1ccc(-c2nnc(Nc3nc(O)c(C4=c5cc(F)ccc5=NC4=O)s3)o2)cc1 | 46.9 | > 100 | 30.4 | > 100 | 39.7 | > 100 | 48.2 | > 100 | 36.5 | > 100 | > 100 | > 100 | – | – | 36.2 | > 100
5 | CCCC#CCOC(=O)c1cc([N+](=O)[O-])cc([N+](=O)[O-])c1 | – | > 100 | – | > 100 | – | – | – | > 100 | – | > 100 | – | > 100 | – | > 100 | – | > 100
6 | CC(=O)c1cccc(NC(=O)c2ccc(NC3=C(Cl)C(=O)N(Cc4ccccc4)C3=O)cc2)c1 | 13.4 | 34.2 | 2.21 | > 100 | 24.9 | 92.2 | 32.8 | > 100 | 8.8 | 27.9 | 18.7 | 72.4 | – | – | 11.8 | 30.1
7 | C[n+]1c(/C=C/c2ccc(/C=N/NC(=O)c3ccc(C(=O)N/N=C/c4ccc(/C=C/c5cn6ccccc6[n+]5C)cc4)cc3)cc2)cn2ccccc21 | – | > 100 | – | 92.4 | – | – | – | > 100 | – | > 100 | – | > 100 | – | – | – | > 100
8 | Oc1c2c(c(O)c3ccccc13)C1(N=N2)c2ccccc2Oc2ccccc21 | – | 37 | – | > 100 | – | – | – | 32.4 | – | 23.5 | – | 19.1 | – | > 100 | – | 17.9
9 | COc1ccc(C(=O)OC2C(OC3C(O)COC(O[C@H]4C[C@H]5[C@@H]6CC=C7C[C@@H](O)CC[C@]7(C)[C@H]6CC[C@]5(C)[C@H]4[C@H](C)C(=O)CCC(C)C)C3OC(C)=O)OCC(O)C2O)cc1 (some centres undefined) | < 0.003 | 24.3 | < 0.003 | < 0.003 | 0.00892 | 19.6 | – | – | < 0.003 | 2.18 | < 0.003 | 0.0072 | < 0.003 | 0.682 | < 0.003 | 0.0435
10 | Cc1cc(O)cc(C)c1/C=C/c1cncc(C(=O)OC(C)(C)C)c1 | 17 | > 25 | 15 | > 25 | 12.2 | > 25 | > 25 | > 25 | > 20.8 | > 25 | 19.6 | > 25 | – | – | 11.6 | > 25
11 | CC(=O)NC1=C(Sc2ccc(Cl)cc2)C(=O)c2ccccc2C1=O | – | 30.5 | – | 1.7 | – | 3.34 | – | 28.6 | – | 18 | – | 17.3 | – | – | – | 4.56
12 | CN(C)CCOc1ccc(-c2cc(-c3ccc4c(c3)CC/C4=N\O)c(-c3ccncc3)o2)cc1 | 3.78 | 7.38 | 3.86 | 10.3 | 5.16 | 11.2 | 4.68 | 8.6 | 4.35 | 8.03 | 0.0945 | 1.87 | – | – | 0.156 | 4.39
13 | CC(=O)/C(=C\c1c(-c2ccccc2)[nH]c2ccccc12)S(=O)(=O)c1ccccc1 | 2.94 | 9.31 | 1.35 | 6.39 | 3.53 | > 54.2 | 4.14 | 12.1 | 1.76 | 11 | 2.23 | 8.58 | – | – | 0.295 | 4.14
